# Assay results as given in PMC3034256 (Chemistry & biology, 2011).
# How the values were obtained:
# Jurkat T cells [1] = experiment: TCR-mediated tyrosine phosphorylation in Jurkat T cells; type: cell-based; details: 2 h pretreatment (2 µM; TTN 2–4 µM), 10 µg/mL anti-CD3
# panel of PTPs = experiment: Screen against a panel of PTPs at 10 µM; type: biochemical; details: 10 µM compound, pNPP, pH 7, 25 °C
# Jurkat T cells [2] = experiment: TCR-mediated ERK1/2 activation in Jurkat T cells; type: cell-based; details: 2 h pretreatment (2 µM), 10 µg/mL anti-CD3
compound,measurement,setting,value
"CO[C@H]([C@H](O)CC(=O)[C@@H](C)[C@@H](O)CC[C@@H](C)[C@@H]1O[C@]2(CC[C@@H](C)[C@H](CC[C@H](C)C(C)=O)O2)CC[C@@H]1C)[C@H](OC(=O)C[C@@H](O)C1=C(C)C(=O)OC1=O)C(C)C [TTM, tautomycin, reference compound]",effect on TCR-mediated tyrosine phosphorylation,Jurkat T cells [1],had no effect
same,inhibitory activity against the panel of PTPs,panel of PTPs,neither TTM nor its analogs exhibited any inhibitory activity
same,effect on TCR-mediated ERK1/2 activation,Jurkat T cells [2],no appreciable change
